Reference: patent US6177475A, “Methods of using integrin modulators for treatment of inflammation” (priority 1997, dated 2001)

Columns and labels:
[1] = system: HIV-1LBi (HIV-infected MOLT-4 cells, syncytiotrophoblasts); test: Lymphocyte-mediated HIV infection of syncytiotrophoblasts; format: cell-based; details: 200 micromoles per liter, 24 hours, virtually all colonies
Source text: Human fetal placental epithelial cells, known as syncytiotrophoblasts, were organized in a monolayer and exposed to HIV-infected lymphocytic cells and, as a negative control, to uninfected cells of the same type. This experimental system, closely simulating the actual conditions under which syncytiotrophoblasts would be exposed to HIV-infected cells in vivo, was used to assess integrin-modulating effects of Ajoene.
In order to assess the ability of Ajoene to inhibit lymphocyte-mediated HIV infection of syncytiotrophoblasts, HIV-1LBi -infected MOLT-4 cells were added to adherent cultures of uninfected syncytiotrophoblasts in the presence and absence of Ajoene. Various additional control conditions were also established. First, some wells received filtered (0.45 micrometer) supernatant of cell-free HIV from infected cell cultures. Yet other negative controls included syncytiotrophoblasts cultured alone and syncytiotrophoblasts cultured with uninfected MOLT-4 cells. After 24 hours, the cocultures were washed to removed unbound lymphocytes, fixed, permeabilized, stained for viral core antigens (p24 and p55), and viewed under a fluorescence microscope.

[2] = system: MT-2 cells / K562/VCAM-1 cells (HTLV-I); test: Syncytium formation of HTLV-I-infected MT-2 cells with K562/VCAM-1 cells; format: cell-based; details: Primate T-lymphotropic virus 1, MT2, 4 h
Source text: MT-2 cells harbor the complete genome of human T cell lymphotropic virus type 1 (HTLV-I), and they transmit the virus to susceptible uninfected cells in cocultures. The transmission manifests itself as fusion of MT-2 cells with the uninfected cells, followed by syncytium formation. K562 cells transfected with VCAM-1, a ligand of the integrin VIA-4, were used as a fusion partner for MT-2 cells. MT-2 and K562/VCAM-1 cells were washed and resuspended in complete RPMI medium at a density of 2×10^6 /ml. MT2 cells were seeded into flat-bottom 96-well microtiter plates (100 microliters per well). Serial dilutions of Ajoene or of the disintegrin kistrin (final concentration) were introduced into the wells, and the plate was incubated for 30 min prior to addition of 100 microliters of K562/VCAM-1 cells. The plates were then incubated for 4 h before scoring syncytium formation.

51Cr-labeled monocytes = test: Monocyte recruitment to inflamed joints in rat adjuvant arthritis; format: in vivo; details: 50 mg/kg i.v.; for Accumulation of 51Cr-labeled Monocytes (mean ± SEM): 2 h
Description: Rat adjuvant arthritis is characterized by integrin-mediated migration of ^51 Cr-labeled monocytes and ^111 In-labeled neutrophils into the inflamed synovium, which attains maximum between days 14 and 21 after the immunization. This model of human rheumatoid arthritis was used to assess in vivo effects of Ajoene on integrins that are known to be modulated by Ajoene in vitro.
Adjuvant arthritis was induced in 6-8 week old inbred male Lewis rats by immunization on the lower back with 0.5 mg Mycobacterium butyricum (Difco Laboratories, Inc., Detroit, Mich.) in 0.05 ml mineral oil in two sites subcutaneously at the base of the tail. All the animals developed polyarticular arthritis between days 11 and 13 after immunization. For clinical scoring, 0-4 points were assigned per limb and tail, based on the severity of erythema, swelling, and limitation of movement (the maximal possible score was 20).
Rat blood monocytes and neutrophils for migration studies were obtained by the hydroxyethyl starch (HES) exchange transfusion technique. The total blood volume of a donor rat was exchanged using 50 ml 6% HES solution in saline (DuPont Chemical Co., Dorval, Canada). After recovery of 40-45 ml blood/HES perfusate, the red cells were allowed to sediment (1 g) and the leukocyte-rich plasma was harvested. The leukocytes were recovered by centrifugation, resuspended in calcium-magnesium-free Tyrode's solution supplemented with 10% platelet-poor plasma (TS-PPP), and centrifuged in a discontinuous 63%/74% gradient of isotonic Percoll (Pharmacia Fine Chemicals, Dorval, Canada). The top layer, containing mononuclear cells (MN), and the cells in the 63%/74% interface, containing neutrophils, were collected, washed, and resuspended in TS-PPP. To obtain purified monocytes, the osmolality of the MN suspension was increased by adding 9% NaCl, and the suspension was centrifuged in a 40%/55%/58% Percoll gradient; monocytes were harvested at 40%/55% and […] interfaces, washed, and resuspended in TS-PPP.
Thereafter, monocytes (10^7 cells/ml) were labeled with 75 microCurie/ml of Na2^51 CrO4 (Amersham, Oakville, Canada) at 37° C. for 30 min. Neutrophils (10^7 cells/ml) were labeled with 1 microCurie/ml of ^111 In oxine (Amersham) for 10 min. Both populations were washed to remove excess labeled material and checked for viability and purity. The viability of either cell population used in the experiments was in excess of 95% (as double-checked by Trypan blue exclusion and neutral red staining). The separation procedure described above ordinarily produced populations that contained no less than 90% monocytes and no less than 95% neutrophils. […]

HSV-2 strain G = test: Herpes simplex virus infection of WI-38 fibroblasts (ELISA for HSV antigens); format: cell-based; details: Human alphaherpesvirus 2, WI-38, 24 hours
Description: The effect on herpes simplex virus (HSV) infection was assessed using human embryonic lung fibroblast line WI-38 and HSV-2 strain G (derived from a human with the genital infection). Semiconfluent fibroblast monolayers grown in 96-well culture plates (10^5 cells per well) were exposed to serial dilutions of Ajoene or vehicle control, followed immediately by addition of HSV-2 (5000 CCID50 per well). After 24 hours of culturing, the supernatants were examined by ELISA for the content of HSV antigens.

MT-4 cells = format: cell-based
melanoma B16 cells = test: Melanoma cell implantation (subcutaneous B16); format: in vivo, C57BL/6 mice; details: Mus musculus, sc; B16 cells pretreated 15 min; tumor volume at 14 and 21 days
Description: Male C57BL/6 mice were inoculated subcutaneously with 10^6 B16 cells (pretreated for 15 min with Ajoene) in their pretreatment medium, and the volume of the tumors formed was measured 14 and 21 days after the injection.

C=CCSSC=CC[S+]([O-])CC=C (centres unmarked) [Ajoene, 4,5,9-trithiadodeca-1,6,11-triene-9-oxide]
prevention of lymphocyte-mediated HIV infection of syncytiotrophoblasts [1]: totally prevented | IC50 ([2]; read-out: IC50 for syncytium formation): ~600 nM | IC100 ([2]; read-out: IC100 for syncytium formation): 4.3 µM | inhibition of monocyte recruitment to the talar joints (51Cr-labeled monocytes): ~ 50% | Accumulation of 51Cr-labeled Monocytes (mean ± SEM) (51Cr-labeled monocytes; talar joint, P < 0.006 vs control): 25,078 cpm per sample | Accumulation of 51Cr-labeled Monocytes (mean ± SEM) (51Cr-labeled monocytes; tarsal joint, N.S.): 10,365 cpm per sample | Accumulation of 51Cr-labeled Monocytes (mean ± SEM) (51Cr-labeled monocytes; vertebral joints, P = 0.079): 2,737 cpm per sample | IC50 (HSV-2 strain G): 6000 nM | IC100 (HSV-2 strain G; read-out: concentration completely preventing HSV infection): 17 µM | toxic effects on the cells (MT-4 cells): without any toxic effects on the cells | IC50 (melanoma B16 cells): 2500 nM
